# Values quoted from earlier work, collected in patent publication US20210205361A1, “COMPOSITIONS AND METHODS FOR CANCER IMMUNOTHERAPY” (priority 2016, published 2021).
# Assays:
# [1] = system: advanced, treatment-refractory malignancies; details: subjects with non-small cell lung cancer (NSCLC)
# [2] = system: diffuse large B-cell lymphoma (DLBCL)
# [3] = system: recurrent multifocal GBM; details: two pediatric patients refractory to standard therapies
substance,measurement,setting,value
BMS-936558: fully human IgG4 monoclonal antibody targeting PD-1,clinical activity,[1],substantial clinical activity
CT-011: humanized IgG1 monoclonal antibody against PD-1,subjects progression-free at the end of the follow-up period,"[2]; DLBCL subjects after autologous stem cell transplantation, control group 47%",70%
same,subjects alive,"[2]; DLBCL subjects after autologous stem cell transplantation, control group 62%",82%
same,activity of natural killer cells,[2]; finding of the phase II trial,augments
"nivolumab: immune checkpoint inhibitor, anti-PD1 antibody",response,[3],remarkable and durable responses
